Source: patent US20080260726A1, “Organic Compounds” (priority 2005, published 2008)

Columns and labels:
[1] = test system: mucus secretion in differentiated HBECs; assay: ATP-γS-induced mucin secretion in differentiated HBECs, enzyme-linked lectin assay (ELLA); type: cell-based, human
Procedure: The effect of siRNA knockdown of CTSC expression on mucin secretion in differentiated HBECs is examined using the CTSC SMARTPOOL at different concentrations (0.3-10 nM). Adenosine triphosphate is used as a mucin secretagogue and secreted mucin is measured using an enzyme-linked lectin assay (ELLA; Kemp, Sugar and Jackson Am. J. Respir. Cell Mol. Biol. (2004) 31: 446-455). HBECs (16.5×10^4 cells per insert from donor 2F1S78) are transfected and cultured using the 9 day differentiation model as described in Example 2. At day 9 (6 days ALI) HBEC inserts are exposed to 100 μM ATP-γS for 10 minutes and supernatants are removed for analysis by ELLA. ATP-γS-induced mucus secretion is inhibited at all CTSC siRNA SMARTPOOL concentrations, but is unaffected by either cyclophilin B siRNA or Lipofectamine alone.
The effect of Compound A on mucus secretion in the 9 day model is examined by adding the compound at various concentrations (0.1-10 μM) to the apical surface in minimal medium containing 0.1% dimethyl sulphoxide (DMSO) and incubating for 30 minutes at 37° C., followed by 10 minutes exposure to 100 μM ATP-γS.

[2] = test system: goblet cell formation in HBECs; assay: Goblet cell formation with Compound A in basolateral medium, 45M1 and AB/PAS staining; type: cell-based, human
Procedure: The siRNA duplexes are transfected into HBECs using […]. Transfection medium is prepared by mixing OPTI-MEM® I reduced serum medium (Invitrogen Corp.), siRNA duplex (5× final concentration) and Lipofectamine 2000™ (5× final concentration), incubating at room temperature for 30 minutes, then diluting 1:5 in antibiotic free differentiation medium (DIFF-AB medium; bronchial epithelial basal medium and Dulbeccos modified eagles medium [50:50] plus bronchial epithelial growth medium SingleQuots [bovine pituitary extract, insulin, hydrocortisone, all-trans retinoic acid, transferrin, epinephrine, tri-iodothyronine and human epidermal growth factor at the recommended concentrations, but no tri-iodothyronine and gentamycin/amphotericin B], all obtained from BioWhittaker) prior to addition to HBECs. For these experiments an abbreviated version of the HBEC model is used in which HBECs are maintained as submerged cultures for 3 days and then transferred to ALI for 6 days. Cells from a passage 2 (P2) stock of HBEC donor 2F1578 are cultured as described in Atherton et al. Am. J. Physiol. Lung Cell Mol. Physiol. (2003) 285: L730-L739 to approximately 85% confluence before harvesting for transfection. After trypsinisation and recovery by centrifugation, cells are resuspended at a density of 16.5×10^4 cells per ml in DIFF-AB medium containing siRNA duplex (10 nM) and Lipofectamine 2000™ (1 μl per ml) and seeded onto 12 well Transwell Clear inserts. One ml of HBEC/DIFF-AB medium/siRNA/lipofectamine 2000™ mix is deposited onto each insert and 1 ml of DIFF-AB medium is added to the basolateral chamber of each insert. After 24 hours (day 1 of submerged culture), all media is aspirated (apically and basolaterally) and replaced with 0.5 ml apically and 1 ml basolaterally of DIFF-AB medium containing 50 μg per ml gentamycin but no amphotericin B (DIFF-AB+G). On day 3, DIFF-AB+G medium is aspirated from the apical and basolateral surfaces and HBECs are cultured at ALI with DIFF-AB+G medium containing 1 ng per ml IL13. All cells are incubated at 37° C., 5% CO2 and 95% relative humidity. The basolateral medium is aspirated at days 5 and 7 and replaced with 1 ml DIFF-AB+G medium containing IL13. In addition the apical surface is rinsed with 0.5 ml phosphate buffered saline (PBS) to remove accumulated cell debris/mucus. Cells are harvested for total RNA extraction at days 3, 5, 7 and 9 as described above, and for goblet cell analysis by histology at day 9. For histology, inserts are fixed by the addition of 0.5 ml 10% neutral buffered formalin (NBF) to the apical surface followed by 1 ml NBF to the basolateral surface. After 24 hours of fixation the inserts are bisected and processed to RALwax through graded industrial methylated spirit (IMS) and chloroform. Both halves of the insert are embedded on edge using fresh RALwax. The paraffin blocks are sectioned at […] and stained with 45M1 antibody (an anti-MUCSAC antibody obtained from Lab-Vision Neomarkers) and alcian blue/haematoxylin and eosin (AB/H&E) according to standard histological protocols to enable detection of mucin and discrimination of individual cells by nuclear staining. The stained slides are examined microscopically.
[…] The effect on goblet cell formation is examined histologically by 45M1 and AB/PAS staining per unit length of epithelium.
A modest effect at 10 μM is seen, with no effect at 0.1 and 1 μM.

CCCS(=O)(=O)Nc1ccc(Cc2cc3cnc(C#N)nc3n2CC(C)(C)C)cc1 [Compound A, propane-1-sulfonic acid {4-[2-cyano-7-(2,2-dimethyl-propyl)-7H-pyrrolo[2,3-d]pyrimidin-6-ylmethyl]-phenyl}-amide]
mucus secretion (Vehicle = 100.00) ([1]; Compd A (0.1 μM), 30 minutes, then 100 μM ATP-γS 10 minutes): 203.51
mucus secretion (Vehicle = 100.00) ([1]; Compd A (10 μM) only, no ATP, 30 minutes apical, 9 day model): 88.99
mucus secretion (Vehicle = 100.00) ([1]; Compd A (10 μM), first column so headed, 30 minutes, then 100 μM ATP-γS 10 minutes): 120.18
mucus secretion (Vehicle = 100.00) ([1]; Compd A (10 μM), second column so headed, 30 minutes, then 100 μM ATP-γS 10 minutes): 177.02
mucus secretion (in words) ([1]; Compound A 0.1-10 μM, 100 μM ATP-γS): dose-dependently inhibits
45M1 and AB/PAS staining per unit length of epithelium ([2]; Table 6, 9 day model (6 days ALI), 0.1 uM + IL13): no effect
45M1 and AB/PAS staining per unit length of epithelium ([2]; Table 6, 9 day model (6 days ALI), 0.1 uM + IL13, listed as Compd A): 2.533
45M1 and AB/PAS staining per unit length of epithelium ([2]; Table 6, 9 day model (6 days ALI), 1 uM + IL13): no effect
45M1 and AB/PAS staining per unit length of epithelium ([2]; Table 6, 9 day model (6 days ALI), 1 uM + IL13, listed as Compd A): 2.621
45M1 and AB/PAS staining per unit length of epithelium ([2]; Table 6, 9 day model (6 days ALI), 10 uM + IL13): modest effect
45M1 and AB/PAS staining per unit length of epithelium ([2]; Table 6, 9 day model (6 days ALI), 10 uM + IL13, listed as Compd A): 1.424
45M1 and AB/PAS staining per unit length of epithelium ([2]; Table 6, 9 day model (6 days ALI), 10 uM, no IL13): 0.300
45M1 and AB/PAS staining per unit length of epithelium ([2]; Table 7, 11 days at ALI, 0.1 uM + IL-13 1 ng/ml): 3.609
45M1 and AB/PAS staining per unit length of epithelium ([2]; Table 7, 11 days at ALI, 1 uM + IL-13 1 ng/ml): 3.700
45M1 and AB/PAS staining per unit length of epithelium ([2]; Table 7, 11 days at ALI, 10 uM + IL-13 1 ng/ml): greater inhibition
45M1 and AB/PAS staining per unit length of epithelium ([2]; Table 7, 11 days at ALI, 10 uM + IL-13 1 ng/ml, listed as Compd A): 0.886
45M1 and AB/PAS staining per unit length of epithelium ([2]; Table 7, 11 days at ALI, 10 uM, no IL-13): 0.153
